The values below come from patent US5198424A, “Functionally active selectin-derived peptides” (Board of Regents of the University of Oklahoma, priority 1992, dated 1993).

Experiment [1] deals with T1, GMP-140 (Homo sapiens, UniProt P16109).
T1 sequence (P16109 42-830): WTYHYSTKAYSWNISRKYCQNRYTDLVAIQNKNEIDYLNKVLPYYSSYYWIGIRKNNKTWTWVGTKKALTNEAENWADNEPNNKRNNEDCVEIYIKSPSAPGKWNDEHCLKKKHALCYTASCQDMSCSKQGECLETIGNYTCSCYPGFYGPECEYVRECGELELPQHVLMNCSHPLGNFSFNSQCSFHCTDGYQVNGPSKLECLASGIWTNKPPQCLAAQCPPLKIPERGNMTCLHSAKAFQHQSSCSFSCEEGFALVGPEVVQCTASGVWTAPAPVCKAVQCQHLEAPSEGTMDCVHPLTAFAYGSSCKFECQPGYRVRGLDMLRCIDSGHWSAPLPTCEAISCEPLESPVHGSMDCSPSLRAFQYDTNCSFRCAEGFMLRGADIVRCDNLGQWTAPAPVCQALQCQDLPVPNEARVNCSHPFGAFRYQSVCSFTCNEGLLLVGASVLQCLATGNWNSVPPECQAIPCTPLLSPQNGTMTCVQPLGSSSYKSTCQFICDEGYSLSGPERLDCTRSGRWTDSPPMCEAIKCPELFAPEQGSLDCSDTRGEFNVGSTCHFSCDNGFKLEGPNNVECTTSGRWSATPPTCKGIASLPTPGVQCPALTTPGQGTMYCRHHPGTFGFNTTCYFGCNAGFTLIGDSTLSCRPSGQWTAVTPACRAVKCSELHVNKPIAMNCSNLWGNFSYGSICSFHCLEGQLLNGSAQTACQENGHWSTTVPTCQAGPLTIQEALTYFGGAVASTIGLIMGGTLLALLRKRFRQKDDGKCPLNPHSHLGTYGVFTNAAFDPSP
Kind of experiment: Neutrophil adhesion to purified GMP-140 immobilized on plastic wells (myeloperoxidase readout). It counts as cell-based. Also on record: from tissue; host or cells: outdated human platelet packs (platelet lysate). To be noted: for % Bound (neutrophils bound to immobilized GMP-140 in the presence of GMP-140-derived peptide): peptide 1.5 mM, cells bound with control C-terminal peptide 761-777 normalized to 100%; for adhesion of neutrophils to immobilized GMP-140 abolished: neutrophils treated with the protease. An excerpt:
Peptides were screened for their ability to inhibit neutrophil adhesion to purified GMP-140 immobilized on plastic wells, using the assay described by Geng, et al., Nature 343, 757-760 (1990).
Human neutrophils are isolated from heparinized whole blood by density gradient centrifugation on Mono-Poly resolving media, Flow Laboratories. Neutrophil suspensions are greater than 98% pure and greater than 95% viable by trypan blue exclusion. For adhesion assays, neutrophils are suspended at a concentration of 2×10^6 cells/ml in Hanks' balanced salt solution containing 1.26 mM Ca^2+ and 0.81 mM Mg^2+ (HBSS, Gibco) with 5 mg/ml human serum albumin (HBSS/HSA). Adhesion assays are conducted in triplicate in 96-well microtiter plates, Corning, incubated at 4° C. overnight with 50 microliters of various protein solutions.
GMP-140 is plated at 5 micrograms/ml and the control proteins: human serum albumin (Alb), platelet glycoprotein IIb/IIIa (IIb), von Willebrand factor (vWF), fibrinogen (FIB), thrombomodulin (TM), gelatin (GEL) or human serum (HS), are added at 50 micrograms/ml. All wells are blocked for 2 h at 22° C. with 300 microliters HBSS containing 10 mg/ml HSA, then washed three times with HBSS containing 0.1% Tween-20 and once with HBSS. Cells (2×10^5 per well were added to the wells and incubated at 22° C. for 20 min. The wells were then filled with HBSS/HSA, sealed with acetate tape (Dynatech), and centrifuged inverted at 150 g for 5 min. After discarding nonadherent cells and supernates, the contents of each well are solubilized with 200 microliters 0.5% hexadecyltrimethylammonium bromide, Sigma, in 50 mM potassium phosphate, pH 6.0, and assayed for myeloperoxidase activity, Ley, et al., Blood 73, 1324-1330 (1989). The number of cells bound was derived from a standard curve of myeloperoxidase activity versus numbers of cells. Under all assay conditions, the cells released less than 5% of total myeloperoxidase and lactate dehydrogenase. Results are presented in Table I. 100% adhesion is that seen in the presence of the C-terminal peptide (amino acid residues 761-777 of GMP-140) as a negative control; this value is the same as controls in which neither peptide nor antibody is added to the cells. Inhibition is read as a lower percent adhesion, so that a value of 5% mean that 95% of the specific adhesion was inhibited.
Peptides from the lectin-like domain of GMP-140 were assayed for their ability to inhibit adhesion of neutrophils to immobilized GMP-140 in the assay described in example 1. Concentrations tested ranged from 0.1 mM to 1.5 mM.

Experiment [2] addresses T1, GMP-140. Kind of experiment: ELISA of binding of biotinylated monoclonal antibodies G1, G2, G3 to immobilized GMP-140 with soluble peptide. Also on record: from tissue; host or cells: outdated human platelet packs (platelet lysate). To be noted: 2 h, peptide 1.5 mM. As for the experimental part:
Based on competitive ELISAs with the purified protein, G1, G2, and G3 each recognize distinct or only partially overlapping epitopes. 1.5 mM peptide was added to biotinylated mAb at a concentration of 2.5 micrograms/ml, which were then added to the wells containing GMP-140, as described in example 1. Binding was measured by an ELISA with an avidin detection system.
The monoclonal antibodies were biotinylated as follows: to 0.5 ml of purified IgG antibody (1 mg/ml in PBS, pH 7.4) was added 50 μl of 3.2 mM N-hydroxysuccinimide biotin in dimethyl sulfoxide and 50 μl of 1 M NaHCO3. After a 2 hour incubation at room temperature in the dark, the reaction was stopped with 50 μl of 1 M NH4 Cl. The biotinylated antibody was then separated from other components by gel filtration on a PD-10 column equilibrated in PBS. The ELISA was performed as follows; all steps were performed at room temperature.
Biotinylated antibody (2.5 μg/ml) with or without 1.5 mM peptide was incubated with wells coated with GMP-140 as described in example 1. After a 2 hour incubation, the antibody was removed, the wells were washed, and 0.1 ml of horseradish peroxidase-conjugated stepavidin (Pierce), diluted 1:1000 in HBSS/HSA, was added for 30 min. The wells were then washed and 0.1 ml of peroxidase substrate (Pierce) was added for 15 min. The color reaction was read at 405 nm.
In general terms: In an ELISA, binding on a coated surface is turned into a signal by an enzyme label.

[3] abbreviates: mAb G1 2.5 micrograms/ml, read-out: % Binding of Biotinylated MAbs G1.
Setting [4] is: mAb G2 2.5 micrograms/ml, read-out: % Binding of Biotinylated MAbs G2.
Setting [5] is: mAb G3 2.5 micrograms/ml, read-out: % Binding of Biotinylated MAbs G3.

Read-outs that look alike come from different tables or passages of the source. Ends that are not written are not given here.

NRYTDLVAI [21-29]: on GMP-140 [1], the “% Bound (neutrophils bound to immobilized GMP-140 in the presence of GMP-140-derived peptide)” value (shortened to “% Bound”) worked out at 71%.

For the substance NRYTDLVAIQ [21-30], the “% Bound” value at GMP-140 [1] was found to be 20%.

PNNKRNNED [81-89]: the “% Bound” value on GMP-140 [1] was 104%.

Consider RKNNK [54-58], for which the “% Bound” value at GMP-140 [1] was 108%.

In the case of RKNNKT [54-59], on GMP-140 [1], the “% Bound” value turned out to be 86%.

Take RKNNKTW [54-60]: the “% Bound” value at GMP-140 [1] is given as 63%.

In the case of RKNNKTWTWV [54-63], the “% Bound” value at GMP-140 [1] is 13%.

“RKRFRQK [TRANSMEMBRANE 755-761, reference compound]”: the remaining activity at 1500 µM at GMP-140 [2] (setting [3]) was found to be 100%; at GMP-140 [2] (setting [4]), 119%; on GMP-140 [2] (setting [5]), 104%.

Regarding RYTDLVAIQ [22-30], at GMP-140 [1], the “% Bound” value is given as 6%.

On to SKQGE [EGF 128-132], for which the figures for the remaining activity at 1500 µM at GMP-140 [2] (setting [3]), on GMP-140 [2] (setting [4]) and at GMP-140 [2] (setting [5]) were 107%, 92% and 104%, respectively.

For TWTWV [59-63], the “% Bound” value on GMP-140 [1] is listed as 102%.

For VAIQNKNE [27-34], at GMP-140 [1], the “% Bound” value is 91%.

On to VEIYIKSPSAPGKWNDEH [LECTIN 91-108], for which the remaining activity at 1500 µM amounted to 97% at GMP-140 [2] (setting [3]), 93% at GMP-140 [2] (setting [4]) and 96% on GMP-140 [2] (setting [5]).

With YPGFYGPECEYVRE [EGF 145-158], the results for the remaining activity at 1500 µM on GMP-140 [2] (setting [3]), at GMP-140 [2] (setting [4]) and on GMP-140 [2] (setting [5]) were 94%, 92% and 108%, respectively.

In the case of YTASCQDMS [LECTIN/EGF 118-126], the figures for the remaining activity at 1500 µM at GMP-140 [2] (setting [3]), on GMP-140 [2] (setting [4]) and on GMP-140 [2] (setting [5]) were 92%, 92% and 104%, respectively.

As to YTDLVAIQ [23-30], on GMP-140 [1], the “% Bound” value stood at 7%.

As to YTDLVAIQNKNE [23-34], the “% Bound” value on GMP-140 [1] was determined as 30%.

On to elastase [reference compound], for which, at GMP-140 [1], the “adhesion of neutrophils to immobilized GMP-140 abolished” value was “Greater than 70%”.

Turning to trypsin [reference compound], on GMP-140 [1], the “adhesion of neutrophils to immobilized GMP-140 abolished” value is recorded as “Greater than 70%”.
